These results are taken from publication PMC10845951, “Characterization of a selective, iron-chelating antifungal compound that disrupts fungal metabolism and synergizes with fluconazole” (Microbiology Spectrum, 2024).

SMILES strings stand for the structures.

Assay [1] relates to Candida glabrata (ATCC15545; JEY10028) wild type. The assay can be described thus: Compound screening: proliferation (OD600, 24 h). The following applies: wild-type C. glabrata (JEY10028), SD media. The class given is cell-based. The method, then:
For experiments, yeast cells were routinely cultured in YPD media and incubated at 30°C overnight. The cultures were refreshed the next day for 2–3 h in YNB −iron (0.69% yeast nitrogen base without amino acids or iron, with 2% dextrose) media, unless stated, at the same temperature. After incubation, the optical density (OD600) of the cell cultures was measured and adjusted to 0.15.
The collismycin compounds were provided by EntreChem (Spain) at stock solutions of 20 mM in DMSO and stored at −20°C. For serial dilutions of the compounds in clear 96-well plates, intermediate stock concentrations of 100 µM of compound (100 µL for each technical replicate) were prepared in YNB −iron media unless otherwise specified, and 1:1 serial dilutions were performed using a multi-channel pipette. Fifty microliters of cell culture (OD600 = 0.15) were added to the wells containing the compounds, for a total volume of 150 µL. The final concentrations in the wells (with three technical replicates) were equivalent to 0.5, 1, 2.1, 4.2, 8.4, 16.7, 33.3, and 66.6 µM. The OD600 of each well was quantified, and the plates were incubated inside plastic bags (to prevent evaporation) at 30°C for 24 h, after which the final OD600 was measured. The EC50 was calculated using the four-parameter log logistic function with the drc package in R ([57]).

Another assay has as its system C. albicans WT. The following applies: 24 h.
The mark [2] stands for this setting: Candida albicans, read-out: C. albicans WT Inhibition (%).

Take `COc1cc(-c2ccccn2)nc(CO)c1SC` [ColH, collismycin H]: in assay [1], the antifungal activity result is “lacked antifungal activity even at very high concentrations”.

Broadly, the inhibition is the change of the read-out against control, counted positive when it falls. For the compound `OC(Cn1cncn1)(Cn1cncn1)c1ccc(F)cc1F` [Fluconazole, fluconazole], the “susceptibility to fluconazole alone” value in the assay on C. albicans WT (YNB −iron) is on record as “only susceptible to high concentrations”. Moreover, in the assay on C. albicans WT (setting [2]), the inhibition at 3.13 µM is -1.65%, the inhibition at 6.25 µM came out at 9.43%, the inhibition at 25 µM was 14.8% and the inhibition at 50 µM is 15.4%. For the same compound, the inhibition at 100 µM with C. albicans WT (setting [2]) amounted to 19.6%.
